Paper PMC5053523, “In Vitro Antibacterial Activity of Rhodanine Derivatives against Pathogenic Clinical Isolates” (PLoS ONE, 2016)
Values after ≈ are worked out from the molar mass of the structure shown. Read-outs that look alike come from different tables or passages of the source.

Experiments:
Type in all cases: cell-based
[1] = test system: vancomycin resistant enterococci (VRE); assay: Broth microdilution MIC50/MIC90, VRE panel; settings: Enterococcus, 10 VRE strains
[2] = test system: methicillin-resistant Staphylococcus aureus (MRSA); assay: Broth microdilution MIC/MBC, MRSA
[3] = test system: Vancomycin Resistant Staphylococcus aureus (VRSA); assay: Broth microdilution MIC/MBC, VRSA; settings: for MBC / MIC: VRSA
[4] = test system: Bacillus anthracis; assay: microbe, parasite or virus in culture
[5] = test system: B. licheniformis; assay: Broth microdilution MIC/MBC, B. licheniformis; settings: Bacillus licheniformis; for MBC: read-out: MBC; for MIC: read-out: MIC
[6] = test system: Clostridium difficile; assay: MIC against Clostridium difficile, anaerobic broth dilution; settings: Clostridioides difficile
Summary of the method: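 Clinical C. difficile isolates grown anaerobically 48 h at 37 °C, suspended to 0.5 McFarland and diluted 1:300 in pre-reduced supplemented Brain Heart Infusion broth. Compounds serially diluted; plates incubated anaerobically at 37 °C for 48 h. MIC = lowest concentration with no visible growth.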

[7] = test system: Mycobacterium smegmatis; assay: Broth microdilution MIC/MBC, Mycobacterium smegmatis; settings: Mycolicibacterium smegmatis, ATCC14468, M. Smegmatis ATCC 14468
[8] = test system: Candida albicans; assay: MIC against Candida albicans; settings: table prints none, read-out: MIC
[9] = test system: Acinetobacter baumannii; assay: MIC with/without sub-MIC colistin, Acinetobacter baumannii
Summary of the method: (§1)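 Compounds plus sub-inhibitory colistin or PMBN; MIC against Gram-negatives, with control antibiotics in parallel.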

[10] = test system: Klebsiella pneumoniae; assay: MIC with/without PMBN, Klebsiella pneumoniae
Summary of the method: as §1

[11] = NCIB9375, B. licheniformis Gibson 46 (NCIB 9375) NR-2494
[12] = NRS712, B. licheniformis NRS 712 NR-2499

O=C(O)[C@H](Cc1ccccc1)N1C(=O)/C(=C/c2cccc(Oc3ccc(Cl)c(Cl)c3)c2)SC1=S [Rh 1]
MIC90 ([1]; VRE, read-out: MIC 90): 8 µM (≈ 4.24 µg/mL)
MIC50 ([1]; read-out: MIC 50): 8 µM (≈ 4.24 µg/mL)
MIC50 ([2]; 11 MRSA strains): 8 µM (≈ 4.24 µg/mL)
MIC90 ([2]; 11 MRSA strains): 8 µM (≈ 4.24 µg/mL)
MBC ([2]; MRSA NRS 1): 8 µM (≈ 4.24 µg/mL)
MIC ([2]; MRSA NRS 1): 8 µM (≈ 4.24 µg/mL)
MBC ([2]; MRSA NRS 19): 8 µM (≈ 4.24 µg/mL)
MIC ([2]; MRSA NRS 19): 8 µM (≈ 4.24 µg/mL)
MBC ([2]; MRSA NRS 37): 8 µM (≈ 4.24 µg/mL)
MIC ([2]; MRSA NRS 37): 8 µM (≈ 4.24 µg/mL)
MBC ([2]; MRSA NRS 107): 8 µM (≈ 4.24 µg/mL)
MIC ([2]; MRSA NRS 107): 8 µM (≈ 4.24 µg/mL)
MBC ([2]; MRSA NRS 119): 8 µM (≈ 4.24 µg/mL)
MIC ([2]; MRSA NRS 119): 8 µM (≈ 4.24 µg/mL)
MBC ([2]; MRSA NRS 382): 8 µM (≈ 4.24 µg/mL)
MIC ([2]; MRSA NRS 382): 8 µM (≈ 4.24 µg/mL)
MBC ([2]; MRSA NRS 383): 8 µM (≈ 4.24 µg/mL)
MIC ([2]; MRSA NRS 383): 8 µM (≈ 4.24 µg/mL)
MBC ([2]; MRSA NRS 384): 32 µM (≈ 17 µg/mL)
MIC ([2]; MRSA NRS 384): 8 µM (≈ 4.24 µg/mL)
MBC ([2]; MRSA NRS 385): 8 µM (≈ 4.24 µg/mL)
MIC ([2]; MRSA NRS 385): 8 µM (≈ 4.24 µg/mL)
MBC ([2]; MRSA NRS 386): 16 µM (≈ 8.49 µg/mL)
MIC ([2]; MRSA NRS 386): 8 µM (≈ 4.24 µg/mL)
MBC ([2]; MRSA NRS 387): 8 µM (≈ 4.24 µg/mL)
MIC ([2]; MRSA NRS 387): 8 µM (≈ 4.24 µg/mL)
MIC50 ([3]; 15 VRSA strains, read-out: MIC 50): 8 µM (≈ 4.24 µg/mL)
MIC90 ([3]; 15 VRSA strains, read-out: MIC 90): 8 µM (≈ 4.24 µg/mL)
MBC ([3]; VRSA 1, read-out: MBC): 8 µM (≈ 4.24 µg/mL)
MIC ([3]; VRSA 1, read-out: MIC): 8 µM (≈ 4.24 µg/mL)
MBC ([3]; VRSA 2, read-out: MBC): 8 µM (≈ 4.24 µg/mL)
MIC ([3]; VRSA 2, read-out: MIC): 8 µM (≈ 4.24 µg/mL)
MBC ([3]; VRSA 3a, read-out: MBC): 16 µM (≈ 8.49 µg/mL)
MIC ([3]; VRSA 3a, read-out: MIC): 8 µM (≈ 4.24 µg/mL)
MBC ([3]; VRSA 3b, read-out: MBC): 8 µM (≈ 4.24 µg/mL)
MIC ([3]; VRSA 3b, read-out: MIC): 8 µM (≈ 4.24 µg/mL)
MBC ([3]; VRSA 4, read-out: MBC): 8 µM (≈ 4.24 µg/mL)
MIC ([3]; VRSA 4, read-out: MIC): 8 µM (≈ 4.24 µg/mL)
MBC ([3]; VRSA 5, read-out: MBC): 16 µM (≈ 8.49 µg/mL)
MIC ([3]; VRSA 5, read-out: MIC): 8 µM (≈ 4.24 µg/mL)
MBC ([3]; VRSA 6, read-out: MBC): 8 µM (≈ 4.24 µg/mL)
MIC ([3]; VRSA 6, read-out: MIC): 4 µM (≈ 2.12 µg/mL)
MBC ([3]; VRSA 7, read-out: MBC): 8 µM (≈ 4.24 µg/mL)
MIC ([3]; VRSA 7, read-out: MIC): 8 µM (≈ 4.24 µg/mL)
MBC ([3]; VRSA 8, read-out: MBC): 32 µM (≈ 17 µg/mL)
MIC ([3]; VRSA 8, read-out: MIC): 4 µM (≈ 2.12 µg/mL)
MBC ([3]; VRSA 9, read-out: MBC): 32 µM (≈ 17 µg/mL)
MIC ([3]; VRSA 9, read-out: MIC): 8 µM (≈ 4.24 µg/mL)
MBC ([3]; VRSA 10, read-out: MBC): 32 µM (≈ 17 µg/mL)
MIC ([3]; VRSA 10, read-out: MIC): 8 µM (≈ 4.24 µg/mL)
MBC ([3]; VRSA 11a, read-out: MBC): 16 µM (≈ 8.49 µg/mL)
MIC ([3]; VRSA 11a, read-out: MIC): 8 µM (≈ 4.24 µg/mL)
MBC ([3]; VRSA 11b, read-out: MBC): 32 µM (≈ 17 µg/mL)
MIC ([3]; VRSA 11b, read-out: MIC): 8 µM (≈ 4.24 µg/mL)
MBC ([3]; VRSA 12, read-out: MBC): 32 µM (≈ 17 µg/mL)
MIC ([3]; VRSA 12, read-out: MIC): 8 µM (≈ 4.24 µg/mL)
MBC ([3]; VRSA 13, read-out: MBC): 32 µM (≈ 17 µg/mL)
MIC ([3]; VRSA 13, read-out: MIC): 8 µM (≈ 4.24 µg/mL)
MBC ([4]; Bacillus anthracis AMES35): 2 µM (≈ 1.06 µg/mL)
MIC ([4]; Bacillus anthracis AMES35): 2 µM (≈ 1.06 µg/mL)
MBC ([4]; Bacillus anthracis UM23): 2 µM (≈ 1.06 µg/mL)
MIC ([4]; Bacillus anthracis UM23): 2 µM (≈ 1.06 µg/mL)
MBC ([4]; Bacillus anthracis Weybridge): 2 µM (≈ 1.06 µg/mL)
MIC ([4]; Bacillus anthracis Weybridge): 2 µM (≈ 1.06 µg/mL)
MBC [5, 11]: 2 µM (≈ 1.06 µg/mL)
MIC [5, 11]: 2 µM (≈ 1.06 µg/mL)
MBC [5, 12]: 4 µM (≈ 2.12 µg/mL)
MIC [5, 12]: 4 µM (≈ 2.12 µg/mL)
MIC ([6]; C. difficile HM-88): 4 µM (≈ 2.12 µg/mL)
MIC ([6]; C. difficile HM-745): 2 µM (≈ 1.06 µg/mL)
MIC ([6]; C. difficile HM-746): 4 µM (≈ 2.12 µg/mL)
MIC ([6]; C. difficile Isolate-1 NR-13427): 4 µM (≈ 2.12 µg/mL)
MIC ([6]; C. difficile Toxigenic Strain P8 NR-32888): 4 µM (≈ 2.12 µg/mL)
MBC ([7]; read-out: MBC): 8 µM (≈ 4.24 µg/mL)
MIC ([7]; read-out: MIC): 4 µM (≈ 2.12 µg/mL)
MIC ([8]; ATCC10231, C. albicans ATCC 10231, unit from abstract): > 64 µM
MIC ([8]; C. albicans NR 29434, unit from abstract): > 64 µM
MIC ([8]; C. albicans NR 29435, unit from abstract): > 64 µM
MIC ([8]; C. albicans NR29437, unit from abstract): > 64 µM
MIC ([8]; C. albicans NR29438, unit from abstract): > 64 µM
MIC ([8]; C. albicans NR 29446, unit from abstract): > 64 µM
MIC ([8]; C. albicans NR 29448, unit from abstract): > 64 µM
MIC ([8]; C. albicans NR 29449, unit from abstract): > 64 µM
MIC ([8]; C. albicans NR 29453, unit from abstract): > 64 µM
MIC ([8]; C. albicans NR 294436, unit from abstract): > 64 µM
MIC ([9]; Acinetobacter baumannii ATCC BAA747, colistin (+) […], read-out: MIC): >64 µM
MIC ([9]; Acinetobacter baumannii ATCC BAA19606, colistin (+) […], read-out: MIC): >64 µM
MIC ([9]; Acinetobacter baumannii, ATCCBAA747): > 128 µM
MIC ([9]; Acinetobacter baumannii, ATCCBAA19606): > 128 µM
MIC ([10]; Klebsiella pneumoniae ATCC BAA 1706, PMBN (+) 4 μg/mL): >64 µM
MIC ([10]; Klebsiella pneumoniae ATCC BAA 2146, PMBN (+) 4 μg/mL): >64 µM
MIC ([10]; Klebsiella pneumoniae, BAA1706): > 128 µM
MIC ([10]; Klebsiella pneumoniae, BAA2146): > 128 µM
